Reference: US7846959B2, “Raf modulators and methods of use” (Exelixis, Inc., priority 2004, dated 2010)
Read-outs that look alike come from different tables or passages of the source.

Experiments:
c-Raf = c-Raf (Homo sapiens, UniProt P04049); assay: Luciferase-coupled chemiluminescence kinase assay (ATP consumption), c-Raf; type: biochemical
How it was run: (§1)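 Enzyme ([…]) was pre-incubated with compound for 30 min at room temperature in 20 mM Tris pH 7.5, 10 mM MgCl2, 0.03% TX-100, 1 mM DTT. ATP was added and the reaction ran 3 h at ambient temperature. Remaining ATP was read by luciferase-luciferin chemiluminescence, giving IC50 values.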

B-Raf = B-Raf (Homo sapiens, UniProt P15056); assay: Luciferase-coupled chemiluminescence kinase assay (ATP consumption), B-Raf; type: biochemical
How it was run: as §1

[1] = read-out: cRaf-1 (inhibition indicated as IC50)
[2] = read-out: bRaf (inhibition indicated as IC50)

Chain of c-Raf (P04049 whole entry): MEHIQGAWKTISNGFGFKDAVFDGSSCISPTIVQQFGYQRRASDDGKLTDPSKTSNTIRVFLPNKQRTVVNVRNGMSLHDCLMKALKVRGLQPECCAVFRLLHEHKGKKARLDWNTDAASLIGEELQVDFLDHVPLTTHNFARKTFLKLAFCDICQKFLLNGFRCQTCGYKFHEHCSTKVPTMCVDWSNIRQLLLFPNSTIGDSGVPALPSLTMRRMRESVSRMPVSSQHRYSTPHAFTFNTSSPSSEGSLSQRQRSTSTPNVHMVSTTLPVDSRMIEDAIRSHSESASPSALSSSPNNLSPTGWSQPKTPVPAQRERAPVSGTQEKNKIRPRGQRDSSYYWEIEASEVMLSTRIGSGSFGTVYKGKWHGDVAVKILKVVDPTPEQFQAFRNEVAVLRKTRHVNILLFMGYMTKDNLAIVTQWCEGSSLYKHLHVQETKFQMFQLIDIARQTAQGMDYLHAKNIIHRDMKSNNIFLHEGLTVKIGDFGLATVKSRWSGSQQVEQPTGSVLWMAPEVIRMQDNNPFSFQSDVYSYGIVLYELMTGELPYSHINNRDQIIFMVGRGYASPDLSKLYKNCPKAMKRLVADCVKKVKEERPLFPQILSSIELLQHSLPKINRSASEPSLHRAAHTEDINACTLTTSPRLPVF
Chain of B-Raf (P15056 whole entry): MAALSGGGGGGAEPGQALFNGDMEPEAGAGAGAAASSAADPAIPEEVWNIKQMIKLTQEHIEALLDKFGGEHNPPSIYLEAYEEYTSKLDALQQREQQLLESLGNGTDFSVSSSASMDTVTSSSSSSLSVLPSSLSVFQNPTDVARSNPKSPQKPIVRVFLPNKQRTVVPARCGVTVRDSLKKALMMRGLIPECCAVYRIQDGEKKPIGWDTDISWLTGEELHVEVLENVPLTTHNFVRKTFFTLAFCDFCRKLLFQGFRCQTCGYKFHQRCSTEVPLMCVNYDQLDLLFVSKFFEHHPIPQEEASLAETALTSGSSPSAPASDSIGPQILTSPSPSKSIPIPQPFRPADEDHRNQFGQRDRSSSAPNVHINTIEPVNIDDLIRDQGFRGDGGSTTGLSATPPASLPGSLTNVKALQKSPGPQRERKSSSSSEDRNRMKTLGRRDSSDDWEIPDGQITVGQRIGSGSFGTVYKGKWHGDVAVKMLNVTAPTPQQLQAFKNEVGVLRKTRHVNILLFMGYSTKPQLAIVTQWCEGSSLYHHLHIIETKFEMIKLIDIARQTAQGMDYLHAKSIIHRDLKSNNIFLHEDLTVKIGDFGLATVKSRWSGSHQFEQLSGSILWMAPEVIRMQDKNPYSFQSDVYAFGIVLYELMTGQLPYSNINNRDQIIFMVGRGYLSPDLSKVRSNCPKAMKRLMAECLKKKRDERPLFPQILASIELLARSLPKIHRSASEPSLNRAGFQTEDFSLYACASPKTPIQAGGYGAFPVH

| IC50 (c-Raf; read-out: cRaf-1 IC50) [nM] | IC50 (B-Raf; read-out: bRaf IC50) [nM] | IC50 (c-Raf; [1]) [nM] | IC50 (B-Raf; [2]) [nM] | Compound |
| --- | --- | --- | --- | --- |
| < 100 | < 100 |  |  | Nc1cc(Cl)cc(N2C(=O)c3ccccc3C2(O)c2ccc3c(c2)NC(=O)CO3)c1 (centres unmarked) [Entry 73, 6-[2-(3-amino-5-chlorophenyl)-1-hydroxy-3-oxo-2,3-dihydro-1H-isoindol-1-yl]-2H-1,4-benzoxazin-3(4H)-one] |
| 1000 to 10000 | 1000 to 10000 |  |  | O=C1COc2ccc(C3(O)c4ccccc4C(=O)N3c3cc(Cl)cc(Cl)c3)cc2N1 (centres unmarked) [Entry 87, 6-[2-(3,5-dichlorophenyl)-1-hydroxy-3-oxo-2,3-dihydro-1H-isoindol-1-yl]-2H-1,4-benzoxazin-3(4H)-one] |
| < 100 | < 100 |  |  | COC(=O)Nc1nc2cc(C3(O)c4ccccc4C(=O)N3c3cc(Cl)c(Cl)cc3F)ccc2[nH]1 (centres unmarked) [Entry 250, methyl {5-[2-(4,5-dichloro-2-fluorophenyl)-1-hydroxy-3-oxo-2,3-dihydro-1H-isoindol-1-yl]-1H-benzimidazol-2-yl}carbamate] |
| < 100 | < 100 |  |  | COC(=O)Nc1nc2cc(C3(O)c4ccccc4C(=O)N3c3ccc(F)c(Cl)c3)ccc2[nH]1 (centres unmarked) [Entry 194, methyl {5-[2-(3-chloro-4-fluorophenyl)-1-hydroxy-3-oxo-2,3-dihydro-1H-isoindol-1-yl]-1H-benzimidazol-2-yl}carbamate] |
|  |  | < 100 | < 100 | CC#CCOC(=O)Nc1nc2cc(C3(O)c4ccccc4C(=O)N3c3ccc(F)cc3)ccc2[nH]1 (centres unmarked) [Entry 273, but-2-yn-1-yl {5-[2-(4-fluorophenyl)-1-hydroxy-3-oxo-2,3-dihydro-1H-isoindol-1-yl]-1H-benzimidazol-2-yl}carbamate] |
|  |  | < 100 | < 100 | COC(=O)Nc1nc2cc(C3(O)c4ccccc4C(=O)N3c3cc(Cl)ccc3OC)ccc2[nH]1 (centres unmarked) [Entry 310, methyl (5-{2-[5-chloro-2-(methyloxy)phenyl]-1-hydroxy-3-oxo-2,3-dihydro-1H-isoindol-1-yl}-1H-benzimidazol-2-yl)carbamate] |
|  |  | < 100 | < 100 | CCc1cccc(N2C(=O)c3ccccc3C2(O)c2ccc3[nH]c(NC(=O)OC)nc3c2)c1F (centres unmarked) [Entry 359, methyl {5-[2-(3-ethyl-2-fluorophenyl)-1-hydroxy-3-oxo-2,3-dihydro-1H-isoindol-1-yl]-1H-benzimidazol-2-yl}carbamate] |
| 1000 to 10000 | ≥ 10000 |  |  | O=C1COc2ccc(C3(O)c4ccccc4C(=O)N3Cc3ccccc3F)cc2N1 (centres unmarked) [Entry 38, 6-{2-[(2-fluorophenyl)methyl]-1-hydroxy-3-oxo-2,3-dihydro-1H-isoindol-1-yl}-2H-1,4-benzoxazin-3(4H)-one] |
|  |  | 1000 to 10000 | 1000 to 10000 | O=C1c2ccccc2C(O)(c2ccc3[nH]c(=O)[nH]c3c2)N1c1cccc(Cl)c1F (centres unmarked) [Entry 306, 5-[2-(3-chloro-2-fluorophenyl)-1-hydroxy-3-oxo-2,3-dihydro-1H-isoindol-1-yl]-1,3-dihydro-2H-benzimidazol-2-one] |

Continued, compound first:

| Compound | IC50 (c-Raf; read-out: cRaf-1 IC50) [nM] | IC50 (B-Raf; read-out: bRaf IC50) [nM] | IC50 (c-Raf; [1]) [nM] | IC50 (B-Raf; [2]) [nM] |
| --- | --- | --- | --- | --- |
| O=C1c2ccccc2C(O)(c2ccc3cn[nH]c3c2)N1Cc1ccccc1 (centres unmarked) [Entry 95, 3-hydroxy-3-(1H-indazol-6-yl)-2-(phenylmethyl)-2,3-dihydro-1H-isoindol-1-one] | ≥ 10000 | ≥ 10000 |  |  |
| COC(=O)Nc1nc2cc(C3(O)c4ccccc4C(=O)N3Cc3cccc(OC)c3)ccc2[nH]1 (centres unmarked) [Entry 117, methyl [5-(1-hydroxy-2-{[3-(methyloxy)phenyl]methyl}-3-oxo-2,3-dihydro-1H-isoindol-1-yl)-1H-benzimidazol-2-yl]carbamate] | 100 to 1000 | 100 to 1000 |  |  |
| CN(C)C(=O)Nc1nc2cc(C3(O)c4ccccc4C(=O)N3Cc3ccccc3)ccc2[nH]1 (centres unmarked) [Entry 158, N′-{5-[1-hydroxy-3-oxo-2-(phenylmethyl)-2,3-dihydro-1H-isoindol-1-yl]-1H-benzimidazol-2-yl}-N,N-dimethylurea] | < 100 | < 100 |  |  |
| CN1CCN(CCCOC(=O)Nc2nc3ccc(C4(O)c5ccccc5C(=O)N4c4ccc(F)cc4)cc3[nH]2)CC1 (centres unmarked) [Entry 280, 3-(4-methylpiperazin-1-yl)propyl {6-[2-(4-fluorophenyl)-1-hydroxy-3-oxo-2,3-dihydro-1H-isoindol-1-yl]-1H-benzimidazol-2-yl}carbamate] |  |  | < 100 | < 100 |
| O=C(Nc1nc2cc(C3(O)c4ccccc4C(=O)N3Cc3ccccc3)ccc2[nH]1)OC1CCNCC1 (centres unmarked) [Entry 170, piperidin-4-yl {5-[1-hydroxy-3-oxo-2-(phenylmethyl)-2,3-dihydro-1H-isoindol-1-yl]-1H-benzimidazol-2-yl}carbamate] | < 100 | < 100 |  |  |
| O=C1COc2ccc(C3(O)c4ccccc4C(=O)N3Cc3cccc([N+](=O)[O-])c3)cc2N1 (centres unmarked) [Entry 52, 6-{1-hydroxy-2-[(3-nitrophenyl)methyl]-3-oxo-2,3-dihydro-1H-isoindol-1-yl}-2H-1,4-benzoxazin-3(4H)-one] | 1000 to 10000 | 1000 to 10000 |  |  |
| CCOC(=O)Nc1nc2cc(C3(O)c4ccccc4C(=O)N3Cc3ccccc3)ccc2[nH]1 (centres unmarked) [Entry 96, ethyl {5-[1-hydroxy-3-oxo-2-(phenylmethyl)-2,3-dihydro-1H-isoindol-1-yl]-1H-benzimidazol-2-yl}carbamate] | ≥ 10000 | ≥ 10000 |  |  |
| COCCOC(=O)Nc1nc2cc(C3(O)c4ccccc4C(=O)N3Cc3ccccc3)ccc2[nH]1 (centres unmarked) [Entry 106, 2-(methyloxy)ethyl {5-[1-hydroxy-3-oxo-2-(phenylmethyl)-2,3-dihydro-1H-isoindol-1-yl]-1H-benzimidazol-2-yl}carbamate] | < 100 | < 100 |  |  |
| COCC(C)(C)COC(=O)Nc1nc2cc(C3(O)c4ccccc4C(=O)N3Cc3ccccc3)ccc2[nH]1 (centres unmarked) [Entry 247, 2,2-dimethyl-3-(methyloxy)propyl {5-[1-hydroxy-3-oxo-2-(phenylmethyl)-2,3-dihydro-1H-isoindol-1-yl]-1H-benzimidazol-2-yl}carbamate] | 100 to 1000 | 100 to 1000 |  |  |
| O=C1COc2ccc(C3(O)c4ccccc4C(=O)N3c3cccc(OCc4ccccc4)c3)cc2N1 (centres unmarked) [Entry 80, 6-(1-hydroxy-3-oxo-2-{3-[(phenylmethyl)oxy]phenyl}-2,3-dihydro-1H-isoindol-1-yl)-2H-1,4-benzoxazin-3(4H)-one] | ≥ 10000 | ≥ 10000 |  |  |
| CCNC(=O)Nc1nc2cc(C3(O)c4ccccc4C(=O)N3[C@H](C)c3ccccc3)ccc2[nH]1 (stereo partly drawn) [Entry 157, N-ethyl-N′-(5-{1-hydroxy-3-oxo-2-[(1R)-1-phenylethyl]-2,3-dihydro-1H-isoindol-1-yl}-1H-benzimidazol-2-yl)urea] | < 100 | < 100 |  |  |
| O=C(Nc1nc2ccc(C3(O)c4ccccc4C(=O)N3Cc3ccccc3)cc2[nH]1)C1CC1(F)F (centres unmarked) [Entry 259, 2,2-difluoro-N-{6-[1-hydroxy-3-oxo-2-(phenylmethyl)-2,3-dihydro-1H-isoindol-1-yl]-1H-benzimidazol-2-yl}cyclopropanecarboxamide] | < 100 | < 100 |  |  |
| COC(=O)Nc1nc2ccc(C(=O)c3ccccc3C(=O)Nc3cc(Cl)c(F)cc3F)cc2[nH]1 [Entry 411, methyl {6-[(2-{[(5-chloro-2,4-difluorophenyl)amino]carbonyl}phenyl)carbonyl]-1H-benzimidazol-2-yl}carbamate] |  |  | < 100 | < 100 |
